This experiment is described as follows: Cuticle abrasion method after bleaching of hair switches. The conditions noted are these: solution 2 versus solution 1. As to the method:
The bleaching solutions 1 and 2 were each divided into three parts A, B and C. A was adjusted to pH 9.7, B to pH 10.1 and C to pH 10.5. Each solution was adjusted to the required pH with ammonium hydroxide (ex sigma, 28.1% active). The six solutions were each dosed (1.6 ml/g hair) onto a separate Spanish hair switch (8 g, 8″, ex Hugo Royer Hair Suppliers) in a disposable petri dish using an automatic pipette. Each switch was then agitated for 90 sec using a spoon ended plastic spatula. […] Each switch was then rinsed and left to dry naturally. Step 3: Cuticle Abrasion Method This method provides a measure of the extent of hair damage following the bleaching step. […] Rinse and repeat. The base wash used is 12% SLES, 2% CAPB in water. Dry them overnight. […] Record the initial weight of the hair. Add 200 ml of distilled water to the blender, making sure that the hair is covered with water. […] Transfer the liquid to a fresh tube. Wash the blender and add this, to the tube, as well. Pour the supernatant in 4×50 ml centrifuge tubes and centrifuge at 4300 rpm for 10 mins, 22° C. Pour the pellet on the filters, wash the tube and add this as well. Transfer the supernatant to centrifuge tubes and centrifuge at 4300 rpm for 10 min. Transfer the pellet to a beaker, wash the tube 2-3 times and top with water until 50 ml. Freeze them until solid. Freeze dry them for 24 hours in Modulyo freeze drier. Once dry, weigh amount of cuticle recovered. Final measure is calculated as follows: […] This measure provides the % weight of cuticle abraded from the hair fibres which reflects the state of damage of the hair tested. Thus the greater amount of cuticle recovered the more damaged the tested hair.

As to `CC(C)CCC[C@@H](C)[C@H]1CC[C@H]2[C@@H]3CC=C4C[C@@H](O)CC[C@]4(C)[C@H]3CC[C@]12C` [cholesterol], the “% reduction in damage of hair when cholesterol present” value runs as follows: (pH 9.7) 3.95%; (pH 10.1) 12.211%; (pH 10.5) 30.902%.

Values taken from patent US20010029636A1, “Hair bleaching and colouring compositions” (priority 1999, published 2001).
